Results as given in patent US10597388B2, “Pyridazinone herbicides” (FMC CORPORATION, priority 2014, dated 2020).

Legend:
Test in all cases: Test C greenhouse herbicide test, pre- and postemergence
Format in all cases: in vivo
[1] = system: waterhemp (common waterhemp, Amaranthus rudis)
How it was run: (§1)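 Seeds sown in loam–sand blend treated preemergence; plants in peat-based medium sprayed postemergence at 2–18 cm (1- to 4-leaf stage); chemicals in non-phytotoxic solvent with surfactant. Greenhouse 13–15 d, then visual rating versus controls on 0–100 scale (0 no effect, 100 complete control).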

[2] = system: lambsquarters (Chenopodium album)
How it was run: as §1

[3] = system: blackgrass (Alopecurus myosuroides)
How it was run: as §1

[4] = system: crabgrass, large (large crabgrass, Digitaria sanguinalis)
How it was run: as §1

[5] = system: galium (catchweed bedstraw, Galium aparine)
How it was run: as §1

[6] = system: foxtail, giant (giant foxtail, Setaria faberii)
How it was run: as §1

[7] = system: nutsedge, yellow (yellow nutsedge, Cyperus esculentus)
How it was run: as §1

corn (Zea mays) = system: corn (Zea mays)
How it was run: as §1

[8] = system: johnsongrass (Sorghum halepense)
How it was run: as §1

[9] = system: wheat (winter wheat, Triticum aestivum)
How it was run: as §1

[10] = system: velvetleaf (Abutilon theophrasti)
How it was run: as §1

soybean (Glycine max) = system: soybean (Glycine max)
How it was run: as §1

[11] = system: morningglory (Ipomoea coccinea)
How it was run: as §1

[12] = system: oilseed rape (Brassica napus)
How it was run: as §1

[13] = system: pigweed (Amaranthus retroflexus)
How it was run: as §1

[14] = system: ryegrass, Italian (Italian ryegrass, Lolium multiflorum)
How it was run: as §1

[15] = Postemergence, 16 g ai/ha, scale 0 to 100 (0 no effect, 100 complete control)
[16] = Postemergence, 31 g ai/ha, 0 to 100 scale (0 no effect, 100 complete control)
[17] = Postemergence, 125 g ai/ha, scale 0 to 100, 0 is no effect, 100 is complete control
[18] = postemergence, 62 g ai/ha, scale 0 to 100, 0 no effect, 100 complete control

Structure (SMILES): COc1ccc2ccccc2c1-c1c(O)c(C)nn(C)c1=O [Compound 40]
- Plant response rating, Waterhemp [1, 15]: 20
- Waterhemp plant response rating [1, 16]: 65
- Plant response rating, Waterhemp [1, 17]: 80
- Waterhemp plant response rating [1, 18]: 65
- Plant response rating, Lambsquarters [2, 15]: 50
- Lambsquarters plant response rating [2, 16]: 70
- Plant response rating, Lambsquarters [2, 17]: 80
- Lambsquarters plant response rating [2, 18]: 70
- Plant response rating, Blackgrass [3, 15]: 5
- Blackgrass plant response rating [3, 16]: 5
- Plant response rating, Blackgrass [3, 17]: 45
- Blackgrass plant response rating [3, 18]: 15
- Plant response rating, Crabgrass, Large [4, 15]: 5
- Crabgrass, Large plant response rating [4, 16]: 5
- Plant response rating, Crabgrass, Large [4, 17]: 10
- Crabgrass, Large plant response rating [4, 18]: 5
- Plant response rating, Galium [5, 15]: 30
- Galium plant response rating [5, 16]: 80
- Plant response rating, Galium [5, 17]: 90
- Galium plant response rating [5, 18]: 85
- Plant response rating, Foxtail, Giant [6, 15]: 5
- Foxtail, Giant plant response rating [6, 16]: 5
- Plant response rating, Foxtail, Giant [6, 17]: 20
- Foxtail, Giant plant response rating [6, 18]: 15
- Plant response rating, Nutsedge, Yellow [7, 15]: 0
- Nutsedge, Yellow plant response rating [7, 16]: 0
- Plant response rating, Nutsedge, Yellow [7, 17]: 20
- Nutsedge, Yellow plant response rating [7, 18]: 15
- Plant response rating, Corn (corn (Zea mays); [15]): 0
- Corn plant response rating (corn (Zea mays); [16]): 0
- Plant response rating, Corn (corn (Zea mays); [17]): 20
- Corn plant response rating (corn (Zea mays); [18]): 0
- Plant response rating, Johnsongrass [8, 15]: 0
- Johnsongrass plant response rating [8, 16]: 0
- Plant response rating, Johnsongrass [8, 17]: 5
- Johnsongrass plant response rating [8, 18]: 5
- Plant response rating, Wheat [9, 15]: 0
- Wheat plant response rating [9, 16]: 10
- Plant response rating, Wheat [9, 17]: 10
- Wheat plant response rating [9, 18]: 10
- Plant response rating, Velvetleaf [10, 15]: 5
- Velvetleaf plant response rating [10, 16]: 5
- Plant response rating, Velvetleaf [10, 17]: 20
- Velvetleaf plant response rating [10, 18]: 10
- Plant response rating, Soybean (soybean (Glycine max); [15]): 35
- Soybean plant response rating (soybean (Glycine max); [16]): 5
- Plant response rating, Soybean (soybean (Glycine max); [17]): 30
- Soybean plant response rating (soybean (Glycine max); [18]): 60
- Plant response rating, Morningglory [11, 15]: 5
- Morningglory plant response rating [11, 16]: 55
- Plant response rating, Morningglory [11, 17]: 80
- Morningglory plant response rating [11, 18]: 65
- Plant response rating, Oilseed Rape [12, 15]: 0
- Oilseed Rape plant response rating [12, 16]: 5
- Plant response rating, Oilseed Rape [12, 17]: 5
- Oilseed Rape plant response rating [12, 18]: 30
- Plant response rating, Pigweed [13, 15]: 15
- Pigweed plant response rating [13, 16]: 35
- Plant response rating, Pigweed [13, 17]: 85
- Pigweed plant response rating [13, 18]: 65
- Plant response rating, Ryegrass, Italian [14, 15]: 10
- Ryegrass, Italian plant response rating [14, 16]: 50
- Plant response rating, Ryegrass, Italian [14, 17]: 80
- Ryegrass, Italian plant response rating [14, 18]: 65
